PubChem BioAssay (NCI)
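Step 1: Grow cells in 96-well plates. Step 2: Expose to compound for 48 hours at 5 concentrations. Step 3: Interpolate endpoints linearly; if unreached, use highest concentration. GI50: concentration for 50% inhibition of growth. TGI marks complete inhibition of growth.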

Legend:
Test in all cases: NCI-60 cell line screen, 48 h
786-0 renal = system: 786-0 renal
A549 NSCLC = system: A549 NSCLC
ACHN renal = system: ACHN renal
BT-549 breast = system: BT-549 breast
CAKI-1 renal = system: CAKI-1 renal
CCRF-CEM leukemia = system: CCRF-CEM leukemia
COLO 205 colon = system: COLO 205 colon
DU-145 prostate = system: DU-145 prostate
EKVX NSCLC = system: EKVX NSCLC
HCC-2998 colon = system: HCC-2998 colon
HCT-116 colon = system: HCT-116 colon
HCT-15 colon = system: HCT-15 colon
HL-60(TB) leukemia = system: HL-60(TB) leukemia
HOP-62 NSCLC = system: HOP-62 NSCLC
HOP-92 NSCLC = system: HOP-92 NSCLC
HS 578T breast = system: HS 578T breast
HT29 colon = system: HT29 colon
IGROV1 ovarian = system: IGROV1 ovarian
K-562 leukemia = system: K-562 leukemia
KM12 colon = system: KM12 colon
LOX IMVI melanoma = system: LOX IMVI melanoma
M14 melanoma = system: M14 melanoma
MALME-3M melanoma = system: MALME-3M melanoma
MCF7 breast = system: MCF7 breast
MDA-MB-231 breast = system: MDA-MB-231 breast
MDA-MB-435 = system: MDA-MB-435
MOLT-4 leukemia = system: MOLT-4 leukemia
NCI-H226 lung = system: NCI-H226 lung
NCI-H23 lung = system: NCI-H23 lung
NCI-H460 lung = system: NCI-H460 lung
NCI-H522 lung = system: NCI-H522 lung
NCI/ADR-RES ovarian = system: NCI/ADR-RES ovarian
OVCAR-3 ovarian = system: OVCAR-3 ovarian
OVCAR-4 ovarian = system: OVCAR-4 ovarian
OVCAR-5 ovarian = system: OVCAR-5 ovarian
OVCAR-8 ovarian = system: OVCAR-8 ovarian
PC-3 prostate = system: PC-3 prostate
RPMI-8226 leukemia = system: RPMI-8226 leukemia
RXF 393 renal = system: RXF 393 renal
SF-268 CNS = system: SF-268 CNS
SF-295 CNS = system: SF-295 CNS
SF-539 CNS = system: SF-539 CNS
SK-MEL-2 melanoma = system: SK-MEL-2 melanoma
SK-MEL-28 melanoma = system: SK-MEL-28 melanoma
SK-MEL-5 melanoma = system: SK-MEL-5 melanoma
SK-OV-3 ovarian = system: SK-OV-3 ovarian
SN12C renal = system: SN12C renal
SNB-19 CNS = system: SNB-19 CNS
SNB-75 CNS = system: SNB-75 CNS
SR leukemia = system: SR leukemia
SW-620 colon = system: SW-620 colon
T-47D breast = system: T-47D breast
TK-10 renal = system: TK-10 renal
U251 CNS = system: U251 CNS
UACC-257 melanoma = system: UACC-257 melanoma
UACC-62 melanoma = system: UACC-62 melanoma
UO-31 renal = system: UO-31 renal

In the case of `COC1[C@@H]2C[C@H]3C(C)(C)O[C@@](C/C=C(/C)C(=O)O)(C2=O)[C@]32Oc3c(CC=C(C)C)c4c(c(O)c3C(=O)[C@H]12)C=CC(C)(C)O4` (some centres undefined), the GI50 (786-0 renal) is reported as 2.49 µM, the TGI (786-0 renal) is reported as 5.97 µM and the GI50 (A549 NSCLC) is reported as 19.7 µM. For the same compound, the TGI (A549 NSCLC) was 49.9 µM, the GI50 (ACHN renal) was 4.91 µM and the TGI (ACHN renal) was 18.4 µM. The GI50 (BT-549 breast) was 2.47 µM, the TGI (BT-549 breast) was 7.1 µM and the GI50 (CAKI-1 renal) was 16.5 µM. The TGI (CAKI-1 renal) was 33.1 µM, the GI50 (CCRF-CEM leukemia) was 3.73 µM and the TGI (CCRF-CEM leukemia) was 53.1 µM. It also gave a GI50 (COLO 205 colon) of 17.2 µM, a TGI (COLO 205 colon) of 40.7 µM and a GI50 (DU-145 prostate) of 13.2 µM. It also gave a TGI (DU-145 prostate) of 26.1 µM, a GI50 (EKVX NSCLC) of 10.3 µM and a TGI (EKVX NSCLC) of 28.9 µM. For the same compound, the GI50 (HCC-2998 colon) was 16.8 µM, the TGI (HCC-2998 colon) was 34.4 µM and the GI50 (HCT-116 colon) was 3.07 µM. For the same compound, the TGI (HCT-116 colon) was 9.71 µM, the GI50 (HCT-15 colon) was 2.97 µM and the TGI (HCT-15 colon) was 13.5 µM. The GI50 (HL-60(TB) leukemia) was 1.53 µM, the TGI (HL-60(TB) leukemia) was 4.99 µM and the GI50 (HOP-62 NSCLC) was 16.3 µM. The TGI (HOP-62 NSCLC) was 32.4 µM, the GI50 (HOP-92 NSCLC) was 10.1 µM and the TGI (HOP-92 NSCLC) was 25.9 µM. For the same compound, the GI50 (HS 578T breast) was 9.58 µM, the TGI (HS 578T breast) was 78 µM and the GI50 (HT29 colon) was 10.2 µM. It also gave a TGI (HT29 colon) of 28.8 µM, a GI50 (IGROV1 ovarian) of 3.27 µM and a TGI (IGROV1 ovarian) of 10.7 µM. It also gave a GI50 (K-562 leukemia) of 3.92 µM, a TGI (K-562 leukemia) of 31.4 µM and a GI50 (KM12 colon) of 14.5 µM. The TGI (KM12 colon) was 31.1 µM, the GI50 (LOX IMVI melanoma) was 2.15 µM and the TGI (LOX IMVI melanoma) was 5.31 µM. The GI50 (M14 melanoma) was 6.57 µM, the TGI (M14 melanoma) was 24.4 µM and the GI50 (MALME-3M melanoma) was 14.2 µM. The TGI (MALME-3M melanoma) was 29.5 µM, the GI50 (MCF7 breast) was 3.22 µM and the TGI (MCF7 breast) was 19.1 µM. It also gave a GI50 (MDA-MB-231 breast) of 6.56 µM, a TGI (MDA-MB-231 breast) of 27.6 µM and a GI50 (MDA-MB-435) of 11.6 µM. For the same compound, the TGI (MDA-MB-435) was 27.8 µM, the GI50 (MOLT-4 leukemia) was 3.61 µM and the TGI (MOLT-4 leukemia) was 36.8 µM. The GI50 (NCI-H226 lung) was 18.9 µM, the TGI (NCI-H226 lung) was 44.8 µM and the GI50 (NCI-H23 lung) was 16.4 µM. For the same compound, the TGI (NCI-H23 lung) was 50.6 µM, the GI50 (NCI-H460 lung) was 8.15 µM and the TGI (NCI-H460 lung) was 25.8 µM. It also gave a GI50 (NCI-H522 lung) of 15.3 µM, a TGI (NCI-H522 lung) of 32.3 µM and a GI50 (NCI/ADR-RES ovarian) of 15.2 µM. For the same compound, the TGI (NCI/ADR-RES ovarian) was over 100 µM, the GI50 (OVCAR-3 ovarian) was 3.77 µM and the TGI (OVCAR-3 ovarian) was 14.9 µM. The GI50 (OVCAR-4 ovarian) was 12.1 µM, the TGI (OVCAR-4 ovarian) was 29.9 µM and the GI50 (OVCAR-5 ovarian) was 20.1 µM. For the same compound, the TGI (OVCAR-5 ovarian) was 41.7 µM, the GI50 (OVCAR-8 ovarian) was 6.82 µM and the TGI (OVCAR-8 ovarian) was 29.5 µM. The GI50 (PC-3 prostate) was 6.03 µM, the TGI (PC-3 prostate) was 22.2 µM and the GI50 (RPMI-8226 leukemia) was 2.56 µM. For the same compound, the TGI (RPMI-8226 leukemia) was 8.1 µM, the GI50 (RXF 393 renal) was 4.54 µM and the TGI (RXF 393 renal) was 18.2 µM. For the same compound, the GI50 (SF-268 CNS) was 12.8 µM, the TGI (SF-268 CNS) was 31.7 µM and the GI50 (SF-295 CNS) was 15.3 µM. For the same compound, the TGI (SF-295 CNS) was 34.8 µM, the GI50 (SF-539 CNS) was 14.3 µM and the TGI (SF-539 CNS) was 28.5 µM. The GI50 (SK-MEL-2 melanoma) was 19 µM, the TGI (SK-MEL-2 melanoma) was 42.1 µM and the GI50 (SK-MEL-28 melanoma) was 11.9 µM. It also gave a TGI (SK-MEL-28 melanoma) of 26.6 µM, a GI50 (SK-MEL-5 melanoma) of 12.5 µM and a TGI (SK-MEL-5 melanoma) of 25.9 µM. It also gave a GI50 (SK-OV-3 ovarian) of 23.4 µM, a TGI (SK-OV-3 ovarian) of 53.4 µM and a GI50 (SN12C renal) of 6.85 µM. For the same compound, the TGI (SN12C renal) was 29.7 µM, the GI50 (SNB-19 CNS) was 15.6 µM and the TGI (SNB-19 CNS) was 30.7 µM. It also gave a GI50 (SNB-75 CNS) of 19.2 µM, a TGI (SNB-75 CNS) of 54.3 µM and a GI50 (SR leukemia) of 2.43 µM. For the same compound, the TGI (SR leukemia) was over 100 µM, the GI50 (SW-620 colon) was 3.05 µM and the TGI (SW-620 colon) was 10.8 µM. It also gave a GI50 (T-47D breast) of 3.14 µM, a TGI (T-47D breast) of 17.6 µM and a GI50 (TK-10 renal) of 18.8 µM. For the same compound, the TGI (TK-10 renal) was 33.5 µM, the GI50 (U251 CNS) was 4.35 µM and the TGI (U251 CNS) was 16.1 µM. For the same compound, the GI50 (UACC-257 melanoma) was 14.7 µM, the TGI (UACC-257 melanoma) was 35.8 µM and the GI50 (UACC-62 melanoma) was 13.2 µM. The TGI (UACC-62 melanoma) was 29.4 µM, the GI50 (UO-31 renal) was 6.73 µM and the TGI (UO-31 renal) was 21.3 µM.
